Source: US20200010910A1, “Cytotoxic Chemotherapy-Based Predictive Assays for Acute Myeloid Leukemia” (The Regents of The University of California, priority 2017, published 2020)
pIC50: −log10 of the molar value.

Tests used:
Format in all cases: cell-based
[1] = test system: A2780 and A2780ADR ovarian cancer cell lines; assay: doxorubicin-DNA adducts by AMS; conditions: 10 nM or 100 nM DOX 4 h, then 20 hr drug-free
Experimental: In order to assess the formation and loss of intracellular doxorubicin-DNA adducts, ovarian cancer cells were treated with Dox in culture. For doxorubicin-treated cells, one million ovarian cancer cells were seeded in 60-mm dishes the day before treatment and allowed to attach overnight. Similar to the ARA-C bolus protocol, the ovarian cancer cell lines were treated with a low (10 nM) or a high (100 nM) dose of unlabeled DOX supplemented with 0.8 nM of ^14C-labeled DOX (100 dpm/mL, 0.39-3.7 mCi/mmol specific activity (American Radiolabeled Chemicals, Inc.) for 4 h followed by an additional 20 hr of culturing in drug-free media (FIG. 25C). At 24 hrs, the cells were pelleted and washed. DNA was then isolated from these cells using the Qiamp DNA Blood Kit followed by two phenol and one chloroform extractions to remove intercalated DOX according to a published protocol (19). This protocol left intact covalent DOX-DNA adducts that are known to be formed as a consequence of DOX metabolism. Removal of intercalated DOX is important, since it is noncovalently bound and would otherwise partially diffuse out from the DNA sample causing variable results. Ten micrograms of DNA from each sample was converted to graphite and the ratios of ^14C to total C were measured by AMS. AMS was performed on triplicate DNA samples and the results were converted to drug-DNA adducts per ten million nucleotides.

[2] = test system: A2780ADR; assay: CellTiter 96 Aqueous cell proliferation assay; conditions: A2780 ADR, 72 hr continuous treatment
Text: (§1) Correlation of IC50 to the AML induction drugs Dox and Ara-C were first performed with the adherent bladder cancer cell lines 5637 and 5637R for cytarabine and with the adherent ovarian cancer cell lines A2780 and A2780ADR for doxorubicin. Cell lines 5637 and 5637R (Ara-C resistant) have been described previously (20). A2780 and A2780ADR (doxorubicin resistant) were purchased from Sigma-Aldrich and grown as recommended. IC50 values were obtained by plating 4000 cells per well in 96-well plates the night before treatment, and then allowing the cells to adhere over night. Leukemia cell lines capable of continuous proliferation in suspension and having differential sensitivities to Dox and Ara-C were also obtained for correlation analysis. MV-4-11 (acute monocytic leukemia) and THP-1 (acute monocytic leukemia) human cell lines were purchased from American Type Culture Collection (ATCC, Manassas, Va.). MOLM-13 (acute myeloid leukemia) human cells were purchased from AddexBio (San Diego, Calif.). For leukemia cell lines (suspension cultures), approximately 8,000-11,000 cells were seeded per well in 96-well plates the day of treatment. MV-4-11 cells were grown in IMDM (Iscove's Modified Dulbecco's Media) with 10% FBS, 100 U/ml penicillin, and 100 μg/ml streptomycin. THP-1, A2780, and A2780ADR cells were grown in RPMI-1640 media with 10% FBS, 100 U/ml penicillin, and 100 μg/ml streptomycin. 5637, 5637R, and MOLM-13 cells were grown in RPMI-1640 media with 20% FBS, 100 U/ml penicillin, and 100 μg/ml streptomycin. All cells were cultured at 37° C. in a humidified incubator. The cells were then incubated with increasing doses of cytarabine or doxorubicin continuously for 72 hours. IC50 values were determined using the CellTiter 96 Aqueous Non-Radioactive Cell Proliferation Assay (Promega). […] As shown, 5637 and 5673R have differential sensitivity to cytarabine, while A2780 and A2780ADR have differential sensitivity to doxorubicin. The leukemic suspension cell lines also have differential sensitivity to these two drugs.

[3] = test system: THP-1; assay: CellTiter 96 Aqueous cell proliferation assay; conditions: Homo sapiens, 72 hr continuous treatment
Text: as §1

[4] = test system: A2780; assay: CellTiter 96 Aqueous cell proliferation assay; conditions: Homo sapiens, 72 hr continuous treatment
Text: as §1

[5] = test system: MV-4-11; assay: CellTiter 96 Aqueous cell proliferation assay; conditions: Homo sapiens, MV4-11, 72 hr continuous treatment
Text: as §1

[6] = test system: MOLM-13; assay: CellTiter 96 Aqueous cell proliferation assay; conditions: Homo sapiens, 72 hr continuous treatment
Text: as §1

COc1cccc2c1C(=O)c1c(O)c3c(c(O)c1C2=O)C[C@@](O)(C(=O)CO)C[C@@H]3O[C@H]1C[C@H](N)[C@H](O)[C@H](C)O1 [doxorubicin]
doxorubicin-DNA adducts in resistant A2780ADR compared to sensitive A2780 [1]: fewer doxorubicine-DNA adducts | pIC50 [2]: 4.92 | pIC50 [3]: 7.62 | pIC50 [4]: 7.68 | pIC50 [5]: 8.52 | pIC50 [6]: 8.40
